Test results reported in PubChem BioAssay AID1963838 (Molecular Pharmacology Branch, DTP, NCI, 2024).

Tested on: 855422-203-R-J1-PDC complex spheroid viability
Assay: Anticancer human tumor 855422-203-R-J1-PDC patient-derived bladder carcinoma cell line growth inhibition [POLQ]
Conditions: for IC50: curve of first compound; for viability, T/C: stronger effect = lower value
Procedure: Multicellular complex tumor spheroid response to Polymerase (POL) inhibitors (novobiocin, ART-558, RP6685) in combination with a variety of drugs and investigational agents in selected tumor cell lines
The POL inhibitors (novobiocin, ART-558, and RP6685) were evaluated both individually and in combination with standard of care and investigational anticancer small molecules within a complex spheroid model of solid tumors. . Complex spheroids include a stromal component modeled by human endothelial cells (HUVEC) and fibroblasts modeled by human mesenchymal stem cells (MSCs). The concentration ranges selected for each drug and investigational agent were based upon clinically achievable concentrations if the clinical Cmax of the agent was known.
Compounds. The drugs and investigational agents: novobiocin (NSC847541), ART-558 (NSC835418), RP-6685 (NSC848927), peposertib (NSC802822), ceralasertib (NSC780249), elimusertib (NSC800525), camonsertib (NSC841442), AZD-1390 (NSC803789), olaparib (NSC753686), talazoparib (NSC767125), rucaparib (NSC756644), sotorasib (NSC818433), MRTX-1133 (NSC836407), SN-38 (NSC673596), topotecan (NSC609699), epotoside (NSC141540), doxorubicin (NSC123127), gemcitabine (NSC613327), 5-fluorouracil (NSC19893), paclitaxel (NSC125973), vemurafenib (NSC761431), MSA-2 (NSC828583), SN-011 (NSC837082), adavosertib (NSC754352), prexasertib (NSC758257), carboplatin (NSC241240) and oxaliplatin (NSC266046), were obtained from the National Cancer Institute (NCI) Developmental Therapeutics Program Chemical Repository (21). The FDA-approved anticancer drug set is available from the Developmental Therapeutics Program at https://dtp.cancer.gov/organization/dscb/obtaining/. […] The stock solutions were prepared in dimethyl sulfoxide (DMSO, Sigma-Aldrich, St. Louis, MO, cat. D2650), except for the platinum compounds which were prepared in saline (Quality Biological, Gaithersburg, MD, cat. 114-055-101), at 800-fold the tested concentration and stored at -70 degrees C prior to their use. All drugs and investigational agents were tested over a range starting from a high concentration at or near the clinical Cmax and decreasing in half-log increments. If the clinical Cmax for an agent had not been determined, the highest concentration tested was 10 microM, except for SN-38, which was tested at a high concentration of 1 microM.
Cell Culture. All cells were maintained in an incubator at 37 degrees C and 5% CO2 with 95% humidity. The PDC lines were cultured according to standard operating procedures established by the NCI PDMR (https://pdmr.cancer.gov). Table 3 of the manuscript, lists the cell lines along with the number of the three cell types plated to form the mct-spheroids and media for tumor cell growth. After thawing, all PDC lines, except 997537-175-T-J1-PDC and 415267-285-R-J2-PDC, were cultured in Matrigel-coated flasks prepared with a working solution of 1X Ham's F-12 nutrient mix, without supplementation (Thermo Fisher Scientific, cat. 11765054), 100 U/mL penicillin-streptomycin (Thermo Fisher Scientific, cat. 15140122), and 2.5% Matrigel (Corning Inc., Corning, NY, cat. 354248) for the first three passages. The two PDC lines 997537-175-T-J1-PDC and 415267-285-R-J2-PDC were cultured on uncoated flasks. The 857933-349-R-J2-PDC line was cultured in 6C/Colon 1B media containing advanced DMEM/F-12 (Thermo Fisher Scientific, cat. 12634028), 10 mM HEPES (Thermo Fisher Scientific, cat. 15630080), 1X GlutaMAX supplement (Thermo Fisher Scientific, cat. 35050061), 0.1 mg/mL primocin (InvivoGen, San Diego, CA, cat. ant-pm-2), 10% defined fetal bovine serum, heat inactivated (HyClone Laboratories Inc., Logan, UT, cat. SH30070.03HI), 50% L-WRN conditioned media (ATCC, cat. CRL-3276), 1.25 mM N-Acetyl-L-cysteine (Sigma-Aldrich, cat. A9165), 10 mM nicotinamide (Sigma-Aldrich, cat. N0636), 1X B-27 supplement (Thermo Fisher Scientific, cat. 17504044), 1X N-2 supplement (Thermo Fisher Scientific, cat. […]

[1] = second compound 0.0316 µM, first compound 0.0316 µM
[2] = second compound 0.0316 µM, first compound 0.1 µM
[3] = second compound 0.0316 µM, first compound 0.316 µM
[4] = second compound 0.0316 µM, first compound 1 µM
[5] = second compound 0.0316 µM, first compound 3.16 µM
[6] = second compound 0.0316 µM, first compound 10 µM
[7] = second compound 0.1 µM, first compound 0.0316 µM
[8] = second compound 0.1 µM, first compound 0.1 µM
[9] = second compound 0.1 µM, first compound 0.316 µM
[10] = second compound 0.1 µM, first compound 1 µM
[11] = second compound 0.1 µM, first compound 3.16 µM
[12] = second compound 0.1 µM, first compound 10 µM
[13] = second compound 0.316 µM, first compound 0.0316 µM
[14] = second compound 0.316 µM, first compound 0.1 µM
[15] = second compound 0.316 µM, first compound 0.316 µM
[16] = second compound 0.316 µM, first compound 1 µM
[17] = second compound 0.316 µM, first compound 3.16 µM
[18] = second compound 0.316 µM, first compound 10 µM
[19] = second compound 1 µM, first compound 0.0316 µM
[20] = second compound 1 µM, first compound 0.1 µM
[21] = second compound 1 µM, first compound 0.316 µM
[22] = second compound 1 µM, first compound 1 µM
[23] = second compound 1 µM, first compound 3.16 µM
[24] = second compound 1 µM, first compound 10 µM
[25] = second compound 3.16 µM, first compound 0.0316 µM
[26] = second compound 3.16 µM, first compound 0.1 µM
[27] = second compound 3.16 µM, first compound 0.316 µM
[28] = second compound 3.16 µM, first compound 1 µM
[29] = second compound 3.16 µM, first compound 3.16 µM
[30] = second compound 3.16 µM, first compound 10 µM
[31] = second compound 10 µM, first compound 0.0316 µM
[32] = second compound 10 µM, first compound 0.1 µM
[33] = second compound 10 µM, first compound 0.316 µM
[34] = second compound 10 µM, first compound 1 µM
[35] = second compound 10 µM, first compound 3.16 µM
[36] = second compound 10 µM, first compound 10 µM
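Further: spheroids exposed to compounds for seven days before readout.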

CCc1cc2c(N3CCc4c(cc(Cn5ccnc5)cc4-c4cn(C)nc4C(F)(F)F)C3=O)ccnc2c(OC)n1 + COC1C(OC(N)=O)C(O)C(Oc2ccc3c(O)c(NC(=O)c4ccc(O)c(CC=C(C)C)c4)c(=O)oc3c2C)OC1(C)C
IC50 (second compound 0.0316 µM): 4020 nM
IC50 (second compound 0.1 µM): 3410 nM
IC50 (second compound 0.316 µM): 2730 nM
IC50 (second compound 1 µM): 2600 nM
IC50 (second compound 3.16 µM): 2050 nM
IC50 (second compound 10 µM): 2220 nM
viability, T/C [1]: 83.6%
viability, T/C [2]: 95%
viability, T/C [3]: 83.4%
viability, T/C [4]: 69.5%
viability, T/C [5]: 55.9%
viability, T/C [6]: 34.5%
viability, T/C [7]: 88.2%
viability, T/C [8]: 82.8%
viability, T/C [9]: 84.1%
viability, T/C [10]: 66.8%
viability, T/C [11]: 52.6%
viability, T/C [12]: 28.5%
viability, T/C [13]: 93.3%
viability, T/C [14]: 80.3%
viability, T/C [15]: 93.2%
viability, T/C [16]: 75.1%
viability, T/C [17]: 46.7%
viability, T/C [18]: 31%
viability, T/C [19]: 87.9%
viability, T/C [20]: 76.9%
viability, T/C [21]: 71.2%
viability, T/C [22]: 65.1%
viability, T/C [23]: 46.6%
viability, T/C [24]: 28.6%
viability, T/C [25]: 89.5%
viability, T/C [26]: 90%
viability, T/C [27]: 68.9%
viability, T/C [28]: 67.3%
viability, T/C [29]: 40%
viability, T/C [30]: 28.1%
viability, T/C [31]: 99.3%
viability, T/C [32]: 76%
viability, T/C [33]: 80.3%
viability, T/C [34]: 72.9%
viability, T/C [35]: 39.3%
viability, T/C [36]: 31.9%

O=C(Nc1ccc(O)c(NS(=O)(=O)c2ccc(F)cc2)c1)c1ccc(-c2ccccc2)cc1 + COC1C(OC(N)=O)C(O)C(Oc2ccc3c(O)c(NC(=O)c4ccc(O)c(CC=C(C)C)c4)c(=O)oc3c2C)OC1(C)C
IC50 (second compound 0.0316 µM): 8240 nM
IC50 (second compound 0.1 µM): 8440 nM
IC50 (second compound 0.316 µM): 8450 nM
IC50 (second compound 1 µM): 8140 nM
IC50 (second compound 3.16 µM): 7830 nM
IC50 (second compound 10 µM): 7630 nM
viability, T/C [1]: 101%
viability, T/C [2]: 101%
viability, T/C [3]: 119%
viability, T/C [4]: 116%
viability, T/C [5]: 106%
viability, T/C [6]: 38.7%
viability, T/C [7]: 109%
viability, T/C [8]: 105%
viability, T/C [9]: 110%
viability, T/C [10]: 98.2%
viability, T/C [11]: 103%
viability, T/C [12]: 40.8%
viability, T/C [13]: 105%
viability, T/C [14]: 110%
viability, T/C [15]: 113%
viability, T/C [16]: 110%
viability, T/C [17]: 106%
viability, T/C [18]: 40.4%
viability, T/C [19]: 106%
viability, T/C [20]: 111%
viability, T/C [21]: 111%
viability, T/C [22]: 113%
viability, T/C [23]: 98.8%
viability, T/C [24]: 39%
viability, T/C [25]: 109%
viability, T/C [26]: 122%
viability, T/C [27]: 112%
viability, T/C [28]: 111%
viability, T/C [29]: 94.2%
viability, T/C [30]: 37.9%
viability, T/C [31]: 107%
viability, T/C [32]: 104%
viability, T/C [33]: 108%
viability, T/C [34]: 102%
viability, T/C [35]: 101%
viability, T/C [36]: 34.6%

CC1COCCN1c1cc(-c2ccnn2C)c2ccnc(-c3ccn[nH]3)c2n1 (stereo unspecified) + Cc1cccc(N(C)C(=O)C2C(O)CCN2c2nc(C)cc(C(F)(F)F)c2C#N)c1
IC50 (second compound 0.0316 µM): 168 nM
IC50 (second compound 0.1 µM): 152 nM
IC50 (second compound 0.316 µM): 167 nM
IC50 (second compound 1 µM): 165 nM
IC50 (second compound 3.16 µM): 155 nM
IC50 (second compound 10 µM): 167 nM
viability, T/C [1]: 113%
viability, T/C [2]: 73%
viability, T/C [3]: 21.4%
viability, T/C [4]: 12.4%
viability, T/C [5]: 7.93%
viability, T/C [6]: 7.23%
viability, T/C [7]: 94.7%
viability, T/C [8]: 68.9%
viability, T/C [9]: 17.3%
viability, T/C [10]: 9.3%
viability, T/C [11]: 8.23%
viability, T/C [12]: 7.12%
viability, T/C [13]: 108%
viability, T/C [14]: 73.4%
viability, T/C [15]: 20.4%
viability, T/C [16]: 10.9%
viability, T/C [17]: 7.43%
viability, T/C [18]: 7.37%
viability, T/C [19]: 111%
viability, T/C [20]: 70.3%
viability, T/C [21]: 23.3%
viability, T/C [22]: 11.7%
viability, T/C [23]: 8.35%
viability, T/C [24]: 7.83%
viability, T/C [25]: 105%
viability, T/C [26]: 66.8%
viability, T/C [27]: 22.7%
viability, T/C [28]: 10.6%
viability, T/C [29]: 7.46%
viability, T/C [30]: 6.31%
viability, T/C [31]: 93.5%
viability, T/C [32]: 70.3%
viability, T/C [33]: 24.7%
viability, T/C [34]: 12.4%
viability, T/C [35]: 8.8%
viability, T/C [36]: 9.23%
